Laboratory results published in patent US9308238B2, “Compositions and methods for modulating EMT and uses thereof” (Whitehead Institute for Biomedical Research, priority 2010, dated 2016).

B1: SFRP1: Recombinant human SFRP1 protein (R&D Systems), secreted decoy receptor binding canonical and non-canonical Wnt ligands (protein, UniProt Q8N474 32-314, looked up)
Secreted frizzled-related …: SEYDYVSFQSDIGPYQSGRFYTKPPQCVDIPADLRLCHNVGYKKMVLPNLLEHETMAEVKQQASSWVPLLNKNCHAGTQVFLCSLFAPVCLDRPIYPCRWLCEAVRDSCEPVMQFFGFYWPEMLKCDKFPEGDVCIAMTPPNATEASKPQGTTVCPPCDNELKSEAIIEHLCASEFALRMKIKEVKKENGDKKIVPKKKKPLKLGPIKKKDLKKLVLYLKNGADCPCHQLDNLSHHFLIMGRKVKSQYLLTAIHKWDKKNKEFKNFMKKMKNHECPTFQSVFK

Legend:
Assay type in all cases: cell-based, human
[1] = test system: luminal MECs; assay: Mammosphere assay, primary luminal cells after pre-treatment; conditions: 5-day treatment
Excerpt: (§1) FIGS. 7A-7G. Migratory and self-renewal properties in primary MECs: inhibition and induction. (FIG. 7A) Mammosphere Assay: microscopy images of mammospheres and quantification of mammosphere formation by purified basal, luminal and unsorted MEC populations. Primary spheres were allowed to form over a period of 7 days, dissociated and seeded for secondary sphere formation, n(mammosphere)/1000 cells, n=48, (FIG. 7B) Migration Assay: microscopy images of migrated cells in Boyden Chambers and quantification, n=6. (FIG. 7C) Mammosphere Assay: basal cells were seeded into assay after a 5 day pre-treatment with TGF-beta inhibitors A83-01 and […] (SB43, both inhibitors at 10 μM) as well as recombinant SFRP1 (1 μg/ml), n(mammospheres)/1000 cells, n=6. (FIG. 7D) Migration Assay: basal cells were seeded into migration assays treated after 5 day pre-treatment as described in (C), n=24. (FIG. 7E) Mammosphere Assay: luminal cells were seeded into the assay following a 5 day pre-treatment with TGF-beta 1 (5 ng/ml), Wnt5a (250 ng/ml), anti-E-Cadherin antibody (1 μg/ml) plus anti-DKK1 antibody (10 μg/ml), and a cocktail of all factors added together (iEMT-II), n(mammospheres)/1000 cells, n=24. (FIG. 7F) Migration Assay: luminal cells were seeded into Boyden Chambers following a 5 day pre-treatment as described in (E), n=6. […]

[2] = test system: luminal MECs; assay: Migration assay, primary luminal cells after pre-treatment; conditions: 5-day treatment
Excerpt: as §1

[3] = test system: HMLE^24+ cells; assay: Proliferation in adherent monolayer cultures after 14 day treatment; conditions: after cessation of 14 day treatment
Excerpt: FIGS. 12A-12F. Concomitant stimulation of Wnt and TGF-beta pathways allows HMLE^24+ cells to enter into a mesenchymal and SC-like state. (FIG. 12A) RT-PCR: SFRP1, L32 was loading control, n=3; SFRP1 mRNA levels in HMLE^24+ stably expressing two hairpin-encoding vectors (shSFRP1a and -b) compared cells expressing a control hairpin targeting GFP (shGFP), HMLE^24+-shSFRP1b were used for iEMT experiments. (FIG. 12B) Flow cytometry: Expression of CD44 and CD24 cell-surface markers in HMLE, HMLE^24+-shGFP and -shSFRP1 cells. […] (FIG. 12F) Growth curves: proliferation of indicated cell lines was monitored by the MTS assay for 3 days, 8 passages after cessation of 14 day treatment as described in (D), n=12.
Proliferation Assays. […] Cell viability was measured using CellTiter-Glo (Promega) according to the manufacturer's instructions.

[4] = test system: basal MECs; assay: Migration assay, primary basal cells after pre-treatment; conditions: 5 day pre-treatment
Excerpt: as §1

[5] = test system: basal MECs; assay: Mammosphere assay, primary basal cells after pre-treatment; conditions: 5 day pre-treatment, assay without further treatment
Excerpt: as §1

Row | Molecule | increase in mammosphere-forming cells / efficiency [1] [fold] | increase in motile cells [2] [fold] | proliferation rates in adherent monolayer cultures [3] | reduction of motility [4] [fold] | reduction of mammosphere formation [5]
1 | TGF-beta 1: recombinant TGF-beta 1 protein, used at 5 ng/ml | 3 | 8 | stably lower |  | 
2 | B1 |  |  |  | 3 | 80-90%
